Measurements reported in patent US20210068395A1, “METHODS OF APPLYING ONE OR MORE CERTAIN HETEROARYL-1,2,4-TRIAZOLE AND HETEROARYL-TETRAZOLE COMPOUNDS TO CONTROL DAMAGE ON PLANTS, PROPAGATION MATERIAL THEREOF, AND PLANT DERIVED PRODUCTS” (SYNGENTA CROP PROTECTION AG, priority 2018, published 2021).

What was measured:
Type in all cases: in vivo
[1] = tested on: Aphis craccivora (Black Bean Aphid); test: Aphis craccivora mixed population, systemic/feeding; settings: 120 h, test rate 12.5 ppm, pea seedlings in test solutions, 5 days
Method: Pea seedlings infested with mixed aged aphid population, were put into glass vials with test solutions. 5 days later, samples were assessed for mortality.

[2] = tested on: Spodoptera littoralis (Egyptian Cotton Leaf Worm); test: Spodoptera littoralis feeding/contact activity; settings: foliar, 72 h, application rate 200 ppm, L1 larvae on cotton leaf discs, 3 days after infestation, read-out: control in at least one of the three categories (mortality or growth inhibition or anti-feeding)
Method: Cotton leaf discs were placed onto agar in 24-well microtiter plates and sprayed with aqueous test solutions prepared from 10,000 ppm DMSO stock solutions. After drying the leaf discs were infested with five L1 larvae. The samples were assessed for mortality, anti-feeding and growth inhibition 3 days after infestation.

[3] = tested on: Myzus persicae (Green Peach Aphid); test: Myzus persicae feeding/contact activity; settings: foliar, 144 h, application rate 200 ppm, sunflower leaf discs sprayed, 6 days after infestation
Method: Sunflower leaf discs were placed onto agar in a 24-well microtiter plate and sprayed with aqueous test solutions prepared from 10,000 ppm DMSO stock solutions. After drying, the leaf discs were infested with an aphid population of mixed ages. The samples were assessed for mortality 6 days after infestation.

[4] = tested on: Plutella xylostella (Diamond Back Moth); test: Plutella xylostella feeding/contact activity, 96-well artificial diet; settings: 216 h, application rate 500 ppm, 9 days after infestation
Method: 1, 2, 3, 4, 17, 19, 23, 26, 39, 41, 42, 54, 55, 56 Plutella xylostella (Diamond Back Moth):Feeding/Contact Activity 96-well microtiter plates containing artificial diet were treated with aqueous test solutions, prepared from 10,000 ppm DMSO stock solutions, by a liquid handling robot. After drying, eggs (˜30 per well) were infested onto a netted lid which was suspended above the diet. The eggs hatch and L1 larvae move down to the diet. The samples were assessed for mortality 9 days after infestation.

[5] = tested on: Aphis craccivora (Black Bean Aphid); test: Aphis craccivora mixed population, contact/feeding; settings: 120 h, test rate 200 ppm, pea seedlings sprayed, 5 days after treatment
Method: Pea seedlings infested with mixed aged aphid population were treated with diluted test solutions in a spray chamber. 5 days after treatment, samples were assessed for mortality.

[6] = tested on: Carpocapsa (Cydia) Pomonella (Codling Moth); test: Carpocapsa (Cydia) pomonella larvicide, feeding/contact; settings: 336 h, test rate 50 ppm, L1 larvae on diet cubes, 14 days after infestation, read-out: control in at least one of the two categories (mortality or growth inhibition)
Method: Diet cubes coated with paraffin were sprayed with diluted test solutions in an application chamber. After drying off the treated cubes (10 replicates) were infested with 1 L1 larvae. Samples were incubated at 26-27° C. and checked 14 days after infestation for mortality and growth inhibition.

[7] = tested on: Diabrotica balteata (corn root worm); test: Diabrotica balteata (corn root worm), sprayed maize sprouts; settings: 96 h, application rate 200 ppm, L2 larvae, 4 days after infestation, read-out: control in at least one of the two categories (mortality or growth inhibition)
Method: Maize sprouts placed onto an agar layer in 24-well microtiter plates were treated with aqueous test solutions prepared from 10,000 ppm DMSO stock solutions by spraying. After drying, the plates were infested with L2 larvae (6 to 8 per well). The samples were assessed for mortality and growth inhibition in comparison to untreated samples 4 days after infestation.

[8] = tested on: Plutella xylostella (Diamond Back Moth); test: Plutella xylostella feeding/contact activity, 24-well artificial diet; settings: 192 h, application rate 200 ppm, 24-well artificial diet, 8 days after infestation, read-out: control in at least one of the two categories (mortality or growth inhibition)
Method: 24-well microtiter plates with artificial diet were treated with aqueous test solutions prepared from 10,000 ppm DMSO stock solutions by pipetting. After drying, Plutella eggs were pipetted through a plastic stencil onto a gel blotting paper and the plate was closed with it. The samples were assessed for mortality and growth inhibition in comparison to untreated samples 8 days after infestation.

[9] = tested on: Spodoptera littoralis (Egyptian Cotton Leaf Worm); test: Spodoptera littoralis systemic activity (lettuce); settings: 144 h, test rate 12.5 ppm, root uptake in lettuce, 6 days after infestation, read-out: control in at least one of the three categories (mortality or growth inhibition or anti-feeding)
Description: Test compounds were applied by pipette prepared from 10,000 ppm DMSO stock solutions into 24-well plates and mixed with agar. Lettuce seeds were placed onto the agar and the multi well plate was closed by another plate which contained also agar. After 7 days the compound was absorbed by the roots and the lettuce grew into the lid plate. The lettuce leaves were then cut off into the lid plate. Spodoptera eggs were pipetted through a plastic stencil onto a humid gel blotting paper and the lid plate was closed with it. The samples were assessed for mortality, anti-feeding and growth inhibition 6 days after infestation.

[10] = tested on: Frankliniella occidentalis (Western Flower Thrips); test: Frankliniella occidentalis feeding/contact activity; settings: foliar, 168 h, application rate 200 ppm, mixed ages on sunflower leaf discs, 7 days after infestation
Method: (§1) Sunflower leaf discs were placed on agar in 24-well microtiter plates and sprayed with aqueous test solutions prepared from 10,000 DMSO stock solutions. After drying the leaf discs were infested with a Frankliniella population of mixed ages. The samples were assessed for mortality 7 days after infestation.

[11] = tested on: Thrips tabaci (Onion thrips); test: Thrips tabaci feeding/contact activity; settings: foliar, 144 h, application rate 200 ppm, sunflower leaf discs, 6 days after infestation, read-out: control in at least one of the two categories (mortality or anti-feeding)
Method: as §1, with “10,000 ppm” for “10,000”, “thrips” for “Frankliniella”, “mortality, and anti-feeding 6” for “mortality 7”

[12] = tested on: Euschistus heros (Neotropical Brown Stink Bug); test: Euschistus heros feeding/contact activity; settings: 120 h, application rate 200 ppm, N2 nymphs on soybean leaves, 5 days after infestation, read-out: control in at least one of the two categories (mortality or growth inhibition)
Method: Soybean leaves on agar in 24-well microtiter plates were sprayed with aqueous test solutions prepared from 10,000 ppm DMSO stock solutions. After drying the leaves were infested with N2 nymphs. The samples were assessed for mortality and growth inhibition 5 days after infestation.

[13] = tested on: Nilaparvata lugens (Brown Plant Hopper); test: Nilaparvata lugens larvicide, feeding/contact; settings: 168 h, test rate 200 ppm, N3 nymphs on sprayed rice plants, 7 days after treatment, read-out: control in at least one of the two categories (mortality or growth inhibition)
Method: Rice plants were treated with the diluted test solutions in a spray chamber. After drying plants were infested with ˜20 N3 nymphs. 7 days after the treatment samples were assessed for mortality and growth inhibition.

CC(c1ncnn1-c1ncccn1)N(CC1CC1)C(=O)c1cc(C(F)(F)F)cc(C(F)(F)F)c1 (stereo not drawn) [Compound 3]
≥ 80%: mortality at 12.5 ppm [1] | percent control (mortality, anti-feedant effect or growth inhibition) at 200 ppm [2] | mortality at 200 ppm [3] | mortality at 500 ppm [4] | mortality at 200 ppm [5] | percent control (mortality or growth inhibition) at 50 ppm [6] | percent control (mortality or growth inhibition) at 200 ppm [7] | percent control (mortality or growth inhibition) at 200 ppm [8] | percent control (mortality, anti-feedant effect or growth inhibition) at 12.5 ppm [9] | mortality at 200 ppm [10] | percent control (mortality, anti-feedant effect or growth inhibition) at 200 ppm [11] | percent control (mortality or growth inhibition) at 200 ppm [12] | percent control (mortality or growth inhibition) at 200 ppm [13]

CC(NC(=O)c1cc(C(F)(F)F)cc(C(F)(F)F)c1)c1ncnn1-c1ncccn1 (stereo not drawn) [Compound 4]
≥ 80%: mortality at 12.5 ppm [1] | percent control (mortality, anti-feedant effect or growth inhibition) at 200 ppm [2] | mortality at 200 ppm [3] | mortality at 500 ppm [4] | mortality at 200 ppm [5] | percent control (mortality or growth inhibition) at 50 ppm [6] | percent control (mortality or growth inhibition) at 200 ppm [7] | percent control (mortality or growth inhibition) at 200 ppm [8] | percent control (mortality, anti-feedant effect or growth inhibition) at 12.5 ppm [9] | mortality at 200 ppm [10] | percent control (mortality, anti-feedant effect or growth inhibition) at 200 ppm [11] | percent control (mortality or growth inhibition) at 200 ppm [12] | percent control (mortality or growth inhibition) at 200 ppm [13]

CC(c1ncnn1-c1ncccn1)N(C)C(=O)c1cc(C(F)(F)F)cc(C(F)(F)F)c1 (stereo not drawn) [Compound 1]
≥ 80%: mortality at 12.5 ppm [1] | percent control (mortality, anti-feedant effect or growth inhibition) at 200 ppm [2] | mortality at 200 ppm [3] | mortality at 500 ppm [4] | mortality at 200 ppm [5] | percent control (mortality or growth inhibition) at 50 ppm [6] | percent control (mortality or growth inhibition) at 200 ppm [7] | percent control (mortality or growth inhibition) at 200 ppm [8] | percent control (mortality, anti-feedant effect or growth inhibition) at 12.5 ppm [9] | mortality at 200 ppm [10] | percent control (mortality, anti-feedant effect or growth inhibition) at 200 ppm [11] | percent control (mortality or growth inhibition) at 200 ppm [12] | percent control (mortality or growth inhibition) at 200 ppm [13]
